Laboratory results published in US8178548B2, “Anti-infective agents and uses thereof” (priority 2007, dated 2012).
Where two headings read alike, the source gives them in different places.

Tests used:
[1] = test system: genotype 1a-H77 subgenomic replicon cell line; test: HCV Polymerase Replicon Assay, genotype 1a-H77 (luciferase reporter); format: cell-based; settings: Hepatitis C virus, 72 h, read-out: EC50 1a
[2] = test system: genotype 1b-Con1 subgenomic replicon cell line; test: HCV Polymerase Replicon Assay, genotype 1b-Con1 (luciferase reporter); format: cell-based; settings: Hepatitis C virus, 72 h, read-out: EC50 1b
[3] = biological target: T1, HCV polymerase 1A (Δ21 NS5B, H77) (Hepatitis C virus genotype 1a, UniProt P27958); test: biochemical
T1 construct: 20 to 50 nM Δ21 NS5B
T1 sequence (P27958 2421-2990, stated change not applied): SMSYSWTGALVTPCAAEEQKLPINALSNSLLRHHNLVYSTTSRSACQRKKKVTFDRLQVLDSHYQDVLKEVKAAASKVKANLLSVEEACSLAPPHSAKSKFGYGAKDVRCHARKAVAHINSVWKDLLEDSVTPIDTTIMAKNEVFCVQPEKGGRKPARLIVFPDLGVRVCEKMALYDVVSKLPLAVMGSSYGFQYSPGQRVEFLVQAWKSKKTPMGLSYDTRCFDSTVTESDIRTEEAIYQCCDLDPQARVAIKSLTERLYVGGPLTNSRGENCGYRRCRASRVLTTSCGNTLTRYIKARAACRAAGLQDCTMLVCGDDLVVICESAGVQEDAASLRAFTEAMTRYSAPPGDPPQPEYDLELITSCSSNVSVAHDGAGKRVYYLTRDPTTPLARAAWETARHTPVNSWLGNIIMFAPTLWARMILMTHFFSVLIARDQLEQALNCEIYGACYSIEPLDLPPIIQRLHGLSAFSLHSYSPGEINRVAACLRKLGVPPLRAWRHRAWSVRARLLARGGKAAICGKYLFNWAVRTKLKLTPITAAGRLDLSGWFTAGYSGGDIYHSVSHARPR
Description: (§1) Either two-fold serial dilutions (fractional inhibition assay) or a narrower range of dilutions spanning the IC50 of the inhibitor (tight binding assay) of the inhibitors were incubated with 20 mM Tris-Cl pH 7.4, 2 mM MnCl2, 1 mM dithiothreitol, 1 mM ethylene diamine tetraacetic acid (EDTA), 60 to 125 μM GTP and 20 to 50 nM Δ21 NS5B (HCV Strain 1B (BK, Genbank accession number M58335, or H77, Genbank accession number AF011751)) for 15 min at room temperature. The reaction was initiated by the addition of 20 μM CTP, 20 μM ATP, 1 μM ^3H-UTP (10 mCi/umol), 5 nM template RNA and 0.1 U/μl RNase inhibitor (RNasin, Promega), and allowed to proceed for 2 to 4 h at room temperature. Reaction volume was 50 μl. The reaction was terminated by the addition of 1 volume of 4 mM spermine in 10 mM Tris-Cl pH 8.0, 1 mM EDTA. After incubation for at least 15 min at room temperature, the precipitated RNA was captured by filtering through a GF/B filter (Millipore) in a 96 well format. The filter plate was washed three times with 200 μl each of 2 mM spermine, 10 mM Tris-Cl pH 8.0, 1 mM EDTA, and 2 times with ethanol. After air-drying, 30 μl of Microscint 20 scintillation cocktail (Packard) was added to each well, and the retained cpm were determined by scintillation counting. […] Retained cpm were plotted vs. inhibitor concentration and fit to equation 1 using non-linear regression (ref. 1) to obtain the IC50 values: Retained cpm=A[sqrt{(IC50+It−Et)^2+4*IC50*Et}−(IC50+It−Et)]
(§2) Ref. Morrison, J. F. and S. R. Stone. 1985. Approaches to the study and analysis of the inhibition of enzymes by slow- and tight-binding inhibitors. Comments Mol. Cell. Biophys. 2: 347-368.
(§3) The sequence of the template RNA used was: 5′-[…] […] […] […] […] […] […] […] […] […] […] […] […] […] […] […] […]-3′ (SEQ ID NO:1).

[4] = biological target: T2, HCV polymerase 1B (Δ21 NS5B, HCV Strain 1B BK) (Hepatitis C virus genotype 1b, UniProt P26663); test: biochemical
T2 construct: 20 to 50 nM Δ21 NS5B
T2 sequence (P26663 2420-2989, stated change not applied): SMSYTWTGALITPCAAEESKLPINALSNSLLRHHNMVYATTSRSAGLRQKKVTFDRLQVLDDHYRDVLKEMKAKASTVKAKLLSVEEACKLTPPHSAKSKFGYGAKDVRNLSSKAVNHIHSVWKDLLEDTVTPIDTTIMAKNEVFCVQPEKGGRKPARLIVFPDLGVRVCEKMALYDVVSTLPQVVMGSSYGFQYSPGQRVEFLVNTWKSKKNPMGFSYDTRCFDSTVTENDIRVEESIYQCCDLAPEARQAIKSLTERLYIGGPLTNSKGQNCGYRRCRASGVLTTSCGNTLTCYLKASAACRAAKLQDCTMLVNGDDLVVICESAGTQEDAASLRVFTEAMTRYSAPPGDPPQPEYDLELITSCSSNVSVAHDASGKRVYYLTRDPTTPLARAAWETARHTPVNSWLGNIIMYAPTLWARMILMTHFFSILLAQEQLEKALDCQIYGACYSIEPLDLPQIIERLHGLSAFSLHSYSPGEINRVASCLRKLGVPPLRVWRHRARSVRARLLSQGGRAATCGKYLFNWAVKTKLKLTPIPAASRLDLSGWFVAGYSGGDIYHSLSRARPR
Description: as §1, §2, §3

[5] = replicon 1a-H77, luciferase, three days
[6] = replicon 1b-Con1, luciferase, three days

Compound	EC50 [1]	EC50 [2]	IC50 [3]	IC50 [4]	EC50 [1, 5]	EC50 [2, 6]
COc1c(/C=C\c2ccc(NS(C)(=O)=O)cc2)cc(N2CCC(=O)NC2=O)cc1C(C)(C)C [IA-L1-1.20, (Z)-N-(4-(3-tert-butyl-5-(2,4-dioxotetrahydropyrimidin-1(2H)-yl)-2-methoxystyryl)phenyl)methanesulfonamide]	10 to 100 nM	10 to 100 nM				
COc1c(/C=C/c2ccc(NS(C)(=O)=O)cc2)cc(-n2ccc(=O)[nH]c2=O)cc1C(C)(C)C [IB-L1-1.1, (E)-N-(4-(3-tert-butyl-5-(2,4-dioxo-3,4-dihydropyrimidin-1(2H)-yl)-2-methoxystyryl)phenyl)methanesulfonamide]	< 10 nM	< 10 nM	< 10 nM	< 10 nM		
COc1c(/C=C/c2ccc(NS(C)(=O)=O)cc2C(=O)N2CCCC2)cc(-n2ccc(=O)[nH]c2=O)cc1C(C)(C)C [IB-L1-1.27, N-[4-{(E)-2-[3-tert-butyl-5-(2,4-dioxo-3,4-dihydro-2H-pyrimidin-1-yl)-2-methoxy-phenyl]-vinyl}-3-(pyrrolidine-1-carbonyl)-phenyl]-methanesulfonamide]	10 to 100 nM	< 10 nM	10 to 100 nM	10 to 100 nM		
CC(C)(C)c1cc(CCc2ccc(NS(C)(=O)=O)cc2)cc(N2CCC(=O)NC2=O)c1 [IA-L5-2-1.2, N-(4-(3-tert-butyl-5-(2,4-dioxotetrahydropyrimidin-1(2H)-yl)phenethyl)phenyl)methane sulfonamide]			10 to 100 nM	10 to 100 nM	100 to 1000 nM	100 to 1000 nM
COc1c(/C=C/c2ccc(NS(C)(=O)=O)cc2CN2CC(O)C2)cc(-n2ccc(=O)[nH]c2=O)cc1C(C)(C)C [IB-L1-1.29, N-[4-{(E)-2-[3-tert-butyl-5-(2,4-dioxo-3,4-dihydro-2H-pyrimidin-1-yl)-2-methoxy-phenyl]-vinyl}-3-(3-hydroxy-azetidin-1-ylmethyl)-phenyl]-methanesulfonamide]	100 to 1000 nM	100 to 1000 nM	10 to 100 nM	10 to 100 nM		
COc1c(/C=C/c2ccc(NS(C)(=O)=O)cc2C(=O)N2CCOCC2)cc(-n2ccc(=O)[nH]c2=O)cc1C(C)(C)C [IB-L1-1.23, (E)-N-(4-(3-tert-butyl-5-(2,4-dioxo-3,4-dihydropyrimidin-1(2H)-yl)-2-methoxystyryl)-3-(morpholine-4-carbonyl)phenyl)methanesulfonamide]	100 to 1000 nM	< 10 nM	10 to 100 nM	10 to 100 nM		
COc1c(/C=C(/F)c2ccc(NS(C)(=O)=O)cc2)cc(N2CCC(=O)NC2=O)cc1C(C)(C)C [IA-L1-1.5, (E)-N-(4-(2-(3-tert-butyl-5-(2,4-dioxotetrahydropyrimidin-1(2H)-yl)-2-methoxyphenyl)-1-fluorovinyl)phenyl)methanesulfonamide]	10 to 100 nM	< 10 nM	< 10 nM	10 to 100 nM		
COc1c(/C=C/c2ccc(NS(C)(=O)=O)cc2C(N)=O)cc(-n2ccc(=O)[nH]c2=O)cc1C(C)(C)C [IB-L1-1.21, 2-{(E)-2-[3-tert-butyl-5-(2,4-dioxo-3,4-dihydro-2H-pyrimidin-1-yl)-2-methoxy-phenyl]-vinyl}-5-methanesulfonylamino-benzamide]	10 to 100 nM	< 10 nM	< 10 nM	10 to 100 nM		
COc1c(/C=C/c2ccc(NS(C)(=O)=O)cc2)cc(-n2ccc(=O)[nH]c2=O)cc1-c1ccsc1 [IB-L1-1.47, (E)-N-(4-(5-(2,4-dioxo-3,4-dihydropyrimidin-1(2H)-yl)-2-methoxy-3-(thiophen-3-yl)styryl)phenyl)methanesulfonamide]			10 to 100 nM	10 to 100 nM	100 to 1000 nM	10 to 100 nM
CCOc1c(/C=C/c2ccc(NS(C)(=O)=O)cc2)cc(-n2ccc(=O)[nH]c2=O)cc1C(C)(C)C [IB-L1-1.30, (E)-N-(4-(3-tert-butyl-5-(2,4-dioxo-3,4-dihydropyrimidin-1(2H)-yl)-2-ethoxystyryl)phenyl)methanesulfonamide]			10 to 100 nM	10 to 100 nM	100 to 1000 nM	10 to 100 nM
COc1c(/C=C(\C)c2ccc(NS(C)(=O)=O)cc2)cc(N2CCC(=O)NC2=O)cc1C(C)(C)C [IA-L1-1.6, (E)-N-(4-(1-(3-tert-butyl-5-(2,4-dioxotetrahydropyrimidin-1(2H)-yl)-2-methoxyphenyl)prop-1-en-2-yl)phenyl)methanesulfonamide]	10 to 100 nM	10 to 100 nM	< 10 nM	10 to 100 nM		
COc1c(/C=C/c2ccc(NS(C)(=O)=O)cc2C=NO)cc(-n2ccc(=O)[nH]c2=O)cc1C(C)(C)C [IB-L1-1.8, N-[4-{(E)-2-[3-tert-Butyl-5-(2,4-dioxo-3,4-dihydro-2H-pyrimidin-1-yl)-2-methoxy-phenyl]-vinyl}-3-(hydroxyimino-methyl)-phenyl]-methanesulfonamide]	10 to 100 nM	< 10 nM	< 10 nM	10 to 100 nM		
COc1c(/C=C(\C)c2ccc([N+](=O)[O-])cc2)cc(N2CCC(=O)NC2=O)cc1C(C)(C)C [IA-L1-1.24, 1-{3-tert-butyl-4-methoxy-5-[(E)-2-(4-nitro-phenyl)-propenyl]-phenyl}-dihydro-pyrimidine-2,4-dione]	> 1000 nM	> 1000 nM	> 1000 nM	> 1000 nM		
COc1c(C2CC2c2ccc(NS(C)(=O)=O)cc2)cc(N2CCC(=O)NC2=O)cc1C(C)(C)C (stereo not drawn) [IA-L8-1.1, N-(4-(2-(3-tert-butyl-5-(2,4-dioxotetrahydropyrimidin-1(2H)-yl)-2-methoxyphenyl)cyclopropyl)phenyl)methanesulfonamide]			100 to 1000 nM	100 to 1000 nM	100 to 1000 nM	100 to 1000 nM
COc1c(/C=C/c2ccc(NS(C)(=O)=O)cc2N)cc(-n2ccc(=O)[nH]c2=O)cc1C(C)(C)C [IB-L1-1.28, (E)-N-(3-amino-4-(3-tert-butyl-5-(2,4-dioxo-3,4-dihydropyrimidin-1(2H)-yl)-2-methoxystyryl)phenyl)methanesulfonamide]	< 10 nM	< 10 nM	10 to 100 nM	10 to 100 nM		
COC(=O)c1cc(NS(C)(=O)=O)ccc1CCc1cc(-n2ccc(=O)[nH]c2=O)cc(C(C)(C)C)c1OC [IB-L5-2-1.1, methyl 2-(3-tert-butyl-5-(2,4-dioxo-3,4-dihydropyrimidin-1(2H)-yl)-2-methoxyphenethyl)-5-(methylsulfonamido)benzoate]			< 10 nM	10 to 100 nM	10 to 100 nM	< 10 nM
CC(C)(C)c1cc(/C=C/c2ccc(NS(C)(=O)=O)cc2)cc(N2CCC(=O)NC2=O)c1 [IA-L1-1.16, (E)-N-(4-(3-tert-butyl-5-(2,4-dioxotetrahydropyrimidin-1(2H)-yl)styryl)phenyl)methanesulfonamide]	10 to 100 nM	10 to 100 nM	< 10 nM	< 10 nM		
COc1c(/C=C/c2ccc(NS(C)(=O)=O)cc2)cc(-n2cc(F)c(=O)[nH]c2=O)cc1C(C)(C)C [IB-L1-1.2, (E)-N-(4-(3-tert-butyl-5-(5-fluoro-2,4-dioxo-3,4-dihydropyrimidin-1(2H)-yl)-2-methoxystyryl)phenyl)methanesulfonamide]			10 to 100 nM	10 to 100 nM		10 to 100 nM
CC(C)(C)c1cc(/C=C/c2ccc([N+](=O)[O-])cc2)cc(N2CCC(=O)NC2=O)c1 [IA-L1-1.25, 1-{3-tert-Butyl-5-[(E)-2-(4-nitro-phenyl)-vinyl]-phenyl}-dihydro-pyrimidine-2,4-dione]			> 1000 nM	> 1000 nM		
COc1c(/C=C/c2ccc(NS(C)(=O)=O)cc2)cc(-n2ccc(=O)[nH]c2=O)cc1-c1ccncc1 [IB-L1-1.55, (E)-N-(4-(5-(2,4-dioxo-3,4-dihydropyrimidin-1(2H)-yl)-2-methoxy-3-(pyridin-4-yl)styryl)phenyl)methanesulfonamide]			> 1000 nM	> 1000 nM		
COc1c(/C=C/c2ccc(NS(C)(=O)=O)cc2)cc(-n2ccc(=O)[nH]c2=O)cc1-c1cccnc1 [IB-L1-1.53, (E)-N-(4-(5-(2,4-dioxo-3,4-dihydropyrimidin-1(2H)-yl)-2-methoxy-3-(pyridin-3-yl)styryl)phenyl)methanesulfonamide]			> 1000 nM	> 1000 nM		
